pIC50: −log10 of the molar value. Structures can show the parent of a compound that is named as a salt.
Test system: not given
Experiment: not given
Conditions: not given

Compared with `CC1(C)C=C(CSc2nc3c(C(N)=O)cccc3[nH]2)C(C)(C)N1` (as salt: HCl) [Compound 27, 2-(2,2,5,5-tetramethyl-2,5-dihydro-1H-pyrrol-3-yl-methyl-sulphanyl)-1H-benzimidazole 4-carboxylic acid amide], `CC1(C)C=C(CSc2nc3c(C(N)=O)cccc3[nH]2)CC(C)(C)N1` [Compound 29, 2-(2,2,6,6-tetramethyl-1,2,3,6-tetrahydro-pyridin-4-yl-methylsulphanyl)-1H-benzimidazole 4-carboxylic acid amide] is higher in melting point: 209 to 211 °C for the first, 245 to 246 °C for the second.

Target: T1, Poly-ADP-ribose polymerase (PARP enzyme) (Rattus norvegicus, UniProt P27008)
T1 construct: Poly-ADP-ribose polymerase was isolated from rat liver; from tissue; host or cells: rat liver
Experiment: Inhibitory effect of benzimidazole derivatives on PARP enzyme in vitro ([3H]NAD+ incorporation)
Type: biochemical
Conditions: not given
Method: Assay to test inhibitory effects of benzimidazole derivatives on PARP enzyme in vitro.
The potential inhibitory effect of benzimidazole derivatives were tested in this assay system. The PARP activity was determined in 130 μl reaction mixture contained 100 mM Tris-HCl buffer, pH 8.0, 10 mM MgCl2, 10% glycerol, 1.5 mM DTT, 1 mM [Adenine-2,8-^3H] NAD^+ (4.500 cpm/nmol), 10 μg activated DNA and 10 μg histones. The incubation time was 15 minutes, and the reaction was stopped by addition of trichloro-acetic acid (8%). After addition of 0.5 mg albumine, precipitation was allowed to proceed for at least 20 minutes on ice, and the insoluble material was collected on a glass filter washed with 5% perchloric acid. The protein-bound radio-activity was determined by a LS-200 Beckman scintillation counter.

T1 sequence (P27008 whole entry): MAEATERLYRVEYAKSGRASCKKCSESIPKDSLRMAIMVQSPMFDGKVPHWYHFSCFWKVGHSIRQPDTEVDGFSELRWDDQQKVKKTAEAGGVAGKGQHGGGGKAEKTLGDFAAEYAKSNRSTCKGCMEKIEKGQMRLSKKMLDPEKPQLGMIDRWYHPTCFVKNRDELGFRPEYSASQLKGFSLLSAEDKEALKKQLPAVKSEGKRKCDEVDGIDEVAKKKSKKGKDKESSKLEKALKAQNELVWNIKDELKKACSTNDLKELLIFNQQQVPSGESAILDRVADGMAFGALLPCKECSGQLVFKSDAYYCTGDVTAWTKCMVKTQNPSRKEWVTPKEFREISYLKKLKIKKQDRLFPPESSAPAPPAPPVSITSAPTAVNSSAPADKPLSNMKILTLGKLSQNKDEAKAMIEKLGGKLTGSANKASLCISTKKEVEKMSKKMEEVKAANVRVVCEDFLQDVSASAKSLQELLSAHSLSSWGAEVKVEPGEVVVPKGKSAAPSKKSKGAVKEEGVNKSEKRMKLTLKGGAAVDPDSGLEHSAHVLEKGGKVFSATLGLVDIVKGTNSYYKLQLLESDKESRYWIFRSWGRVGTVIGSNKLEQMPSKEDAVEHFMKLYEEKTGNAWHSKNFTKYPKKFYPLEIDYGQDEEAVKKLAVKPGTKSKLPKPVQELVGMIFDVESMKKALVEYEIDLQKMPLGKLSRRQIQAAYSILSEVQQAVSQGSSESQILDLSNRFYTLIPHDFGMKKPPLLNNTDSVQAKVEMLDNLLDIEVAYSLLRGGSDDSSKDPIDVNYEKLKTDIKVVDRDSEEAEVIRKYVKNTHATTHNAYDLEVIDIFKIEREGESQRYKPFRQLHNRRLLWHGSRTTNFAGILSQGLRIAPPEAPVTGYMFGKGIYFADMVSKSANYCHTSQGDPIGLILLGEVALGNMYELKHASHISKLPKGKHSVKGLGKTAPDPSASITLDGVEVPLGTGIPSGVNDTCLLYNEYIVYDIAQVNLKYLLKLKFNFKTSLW

Compared with `CC1(C)C=C(c2nc3c(C(N)=O)cccc3[nH]2)C(C)(C)N1[O]` [Compound 1, 2-(1-oxyl-2,2,5,5-tetramethyl-2,5-dihydro-1H-pyrrol-3-yl)-1H-benzimidazole 4-carboxylic acid amide radical], `CN1C(C)(C)C=C(c2nc3c(C(N)=O)cccc3[nH]2)C1(C)C` [Compound 13, 2-(1,2,2,5,5-pentamethyl-2,5-dihydro-1H-pyrrol-3-yl)-1H-benzimidazole 4-carboxylic acid amide] is 1.24 log units higher in pIC50: 6.14 for the first, 7.38 for the second.

Compared with `CC1(C)C(Br)=C(c2nc3c(C(N)=O)cccc3[nH]2)C(C)(C)N1[O]` [Compound 5, 2-(4-bromo-1-oxyl-2,2,5,5-tetramethyl-2,5-dihydro-1H-pyrrol-3-yl)-1H-benzimidazole 4-carboxylic acid amide radical], `CC1(C)c2cc(-c3nc4c(C(N)=O)cccc4[nH]3)sc2C(C)(C)N1[O]` [Compound 24, 2-(5-oxyl-4,4,6,6-tetramethyl-4,6-dihydro-5H-thieno[2,3-c]pyrrol-2-yl)-1H-benzimidazole 4-carboxylic acid amide radical] is 1.23 log units lower in pIC50: 6.70 for the first, 5.47 for the second.

Compared with `CC1(C)C(c2ccccc2)=C(c2nc3c(C(N)=O)cccc3[nH]2)C(C)(C)N1[O]` [Compound 7, 2-(1-oxyl-4-phenyl-2,2,5,5-tetramethyl-2,5-dihydro-1H-pyrrol-3-yl)-1H-benzimidazole 4-carboxylic acid amide radical], `CC1(C)C(c2cccc(C(F)(F)F)c2)=C(c2nc3c(C(N)=O)cccc3[nH]2)C(C)(C)N1[O]` [Compound 9, 2-[1-oxyl-2,2,5,5-tetramethyl-4-(3-trifluoromethyl-phenyl)-2,5-dihydro-1H-pyrrol-3-yl]-1H-benzimidazole 4-carboxylic acid amide radical] is 1.01 log units higher in pIC50: 5.82 for the first, 6.83 for the second. The second is the more potent here.

First: CC1(C)NC(C)(C)C(c2nc3c(C(N)=O)cccc3[nH]2)=C1c1cccc(C(F)(F)F)c1 [Compound 10, 2-[2,2,5,5-tetramethyl-4-(3-trifluoromethyl-phenyl)-2,5-dihydro-1H-pyrrol-3-yl]-1H-benzimidazole 4-carboxylic acid amide]
Second: CC1(C)NC(C)(C)c2sc(-c3nc4c(C(N)=O)cccc4[nH]3)cc21 [Compound 25, 2-(4,4,6,6-tetramethyl-4,6-dihydro-5H-thieno[2,3-c]pyrrol-2-yl)-1H-benzimidazole 4-carboxylic acid amide]
The pIC50 of the first is 0.43 log units higher: 6.88 for the first, 6.45 for the second. The first is the more potent here.

Going from `CC1(C)C=C(c2ccc(-c3nc4c(C(N)=O)cccc4[nH]3)cc2)C(C)(C)N1[O]` [Compound 11, 2-[4-(1-oxyl-2,2,5,5-tetramethyl-2,5-dihydro-1H-pyrrol-3-yl)-phenyl]-1H-benzimidazole 4-carboxylic acid amide radical] to `CC1(C)C=C(COc2ccc(-c3nc4c(C(N)=O)cccc4[nH]3)cc2)C(C)(C)N1[O]` [Compound 20, 2-[4-(1-oxyl-2,2,5,5-tetramethyl-2,5-dihydro-1H-pyrrol-3-yl-methoxy)-phenyl]-1H-benzimidazole 4-carboxylic acid amide radical], the pIC50 falls from 7.11 to 6.25 (0.86 log units).

Going from `CC1(C)C(c2nc3c(C(N)=O)cccc3[nH]2)=C(c2cccc3c2oc2ccccc23)C(C)(C)N1[O]` [Compound 16] to `COc1cc(-c2nc3c(C(N)=O)cccc3[nH]2)ccc1OCC1=CC(C)(C)N([O])C1(C)C` [Compound 22, 2-[3-methoxy-4-(1-oxyl-2,2,5,5-tetramethyl-2,5-dihydro-1H-pyrrol-3-yl-methoxy)-phenyl]-1H-benzimidazole 4-carboxylic acid amide radical], the pIC50 rises from 5.74 to 6.33 (0.59 log units).

Going from `CC1(C)C=C(c2nc3c(C(N)=O)cccc3[nH]2)CC(C)(C)N1` [Compound 19, 2-(2,2,6,6-tetramethyl-1,2,3,6-tetrahydro-pyridin-4-yl)-1H-benzimidazole 4-carboxylic acid amide] to `COc1cc(-c2nc3c(C(N)=O)cccc3[nH]2)ccc1OCC1=CC(C)(C)NC1(C)C` [Compound 23, 2-[3-methoxy-4-(2,2,5,5-tetramethyl-2,5-dihydro-1H-pyrrol-3-yl-methoxy)-phenyl]-1H-benzimidazole 4-carboxylic acid amide], the pIC50 falls from 7.85 to 6.36 (1.49 log units).

Same assay, conditions: PARP isolated from rat liver, 1 mM [3H]NAD+, 15 min incubation; read-out: PARP IC50

First: CC1(C)C=C(c2nc3c(C(N)=O)cccc3[nH]2)C(C)(C)N1 [Compound 2, 2-(2,2,5,5-tetramethyl-2,5-dihydro-1H-pyrrol-3-yl)-1H-benzimidazole 4-carboxylic acid amide]
Second: CON1C(C)(C)C=C(c2nc3c(C(N)=O)cccc3[nH]2)C1(C)C [Compound 15, 2-(1-methoxy-2,2,5,5-tetramethyl-2,5-dihydro-1H-pyrrol-3-yl)-1H-benzimidazole 4-carboxylic acid amide]
The pIC50 of the first is 0.75 log units lower: 6.46 for the first, 7.21 for the second.

First: COC(=O)C1C(c2nc3c(C(N)=O)cccc3[nH]2)C(C)(C)NC1(C)C (centres unmarked) [Compound 4, 4-(4-carbamoyl-1H-benzimidazol-2-yl)-2,2,5,5-tetramethyl-pyrrolidine-3-carboxylic acid methyl ester]
Second: CC(=O)N1C(C)(C)C=C(c2nc3c(C(N)=O)cccc3[nH]2)C1(C)C [Compound 14, 2-(1-acetyl-2,2,5,5-tetramethyl-2,5-dihydro-1H-pyrrol-3-yl)-1H-benzimidazole 4-carboxylic acid amide]
The pIC50 of the first is 0.64 log units lower: 6.67 for the first, 7.31 for the second. The second is the more potent here.

Compared with `CC1(C)NC(C)(C)C(c2nc3c(C(N)=O)cccc3[nH]2)=C1Br` [Compound 6, 2-(4-bromo-2,2,5,5-tetramethyl-2,5-dihydro-1H-pyrrol-3-yl)-1H-benzimidazole 4-carboxylic acid amide], `CC1(C)NC(C)(C)C(c2nc3c(C(N)=O)cccc3[nH]2)=C1c1ccccc1` [Compound 8, 2-(4-phenyl-2,2,5,5-tetramethyl-2,5-dihydro-1H-pyrrol-3-yl)-1H-benzimidazole 4-carboxylic acid amide] is 0.35 log units lower in pIC50: 6.86 for the first, 6.51 for the second.

Compared with `CC1(C)C=C(c2ccc(-c3nc4c(C(N)=O)cccc4[nH]3)cc2)C(C)(C)N1` [Compound 12, 2-[4-(2,2,5,5-tetramethyl-2,5-dihydro-1H-pyrrol-3-yl)-phenyl]-1H-benzimidazole 4-carboxylic acid amide], `CC1(C)C=C(COc2ccc(-c3nc4c(C(N)=O)cccc4[nH]3)cc2)C(C)(C)N1` [Compound 21, 2-[4-(2,2,5,5-tetramethyl-2,5-dihydro-1H-pyrrol-3-yl-methoxy)-phenyl]-1H-benzimidazole 4-carboxylic acid amide] is 0.77 log units lower in pIC50: 7.01 for the first, 6.24 for the second. The first is the more potent here.

Compared with `CC1(C)NC(C)(C)C(c2cccc3c2oc2ccccc23)=C1c1nc2c(C(N)=O)cccc2[nH]1` [Compound 17], `CC1(C)C=C(c2nc3c(C(N)=O)cccc3[nH]2)CC(C)(C)N1O` [Compound 18, (1-hydroxy-2,2,6,6-tetramethyl-1,2,3,6-tetrahydro-pyridin-4-yl)-1H-benzimidazole 4-carboxylic acid amide] is 2.50 log units higher in pIC50: 5.09 for the first, 7.59 for the second.

— patent US20070072912A1, “Alicyclic-amine-substituted 4-carboxamido-benzimidazoles as parp-inhibitors and antioxidants” (Cedars-Sinai Medical Center, priority 2003, published 2007)
